Test results reported in patent US20060204443A1, “Methods for tumor treatment using dendrimer conjugates” (The Government of the USA as represented by the Secretary …, priority 2005, published 2006).
“Also recorded” adds a separate entry of the source.

Experiments:
[1] = tested on: lymphatic drainage from tumor-bearing mammary glands; experiment: MR mammo-lymphangiography in breast tumor models (BALB-neuT, PT-18 xenograft); type: in vivo, mice
From the text: The breast-tumor bearing mice were thirty one week-old BALB-neuT mice (n=3) transgenic for the rat HER-2/neu (Erb B2) oncogene under the control of the mouse mammary tumor virus promotor (MMTV). […] BALB-neuT mice were used because of their spontaneous development of bilateral breast cancers and lymph node metastases. Heterozygous female BALB-neuT mice (BALB/c background) develop mammary gland lobule hyperplasia at 5-6 weeks of age that progresses to atypical hyperplasia by 8-9 weeks, followed by in situ carcinoma by 14 weeks, becoming invasive carcinoma usually by 21 week of age. Rovero et al., J. Immunol.; 165:5133-42, 2000. Most metastatic lymph nodes from the mouse mammary pad localize in the neck, lateral thoracic, or axillary region.
Tumor xenografts of PT-18, a murine mast cell line, were introduced into the left mammary pad in athymic nu/nu mice. When 10^7 PT-18 cells were injected in the left mammary pad of 10 athymic nu/nu mice, six mice developed tumor masses in the left axillary lymph nodes within three weeks.
Mice were anesthetized with 1.15 mg sodium pentobarbital (Dainabot, Osaka, Japan), and then injected with 0.15-0.24 μmol Gd/5-8 μL of the PAMAM-G6 contrast agent into normal mammary glands or mammary tissue surrounding a tumor (peritumorally). Dynamic micro-MR images were obtained using a 1.5-Tesla superconductive magnet unit (Signa LX, General Electric Medical System, Milwaukee, Wis.) with a birdcage type coil of 3 cm diameter fixed by a custom made coil holder. Single and double “breast coils” used for imaging breasts in humans are commercially available, for example, from GE Medical Systems (Milwaukee, Wis.) and are routinely available in outpatient MRI centers. The mice were wrapped with gauze to stabilize their body temperature and were placed at the center of the coils. […]

[2] = tested on: axillary lymph nodes and their lymphatic vessels; experiment: Dynamic 3D-MR lymphangiography, effect of contrast agent size (Example 4); type: in vivo, athymic nu/nu mice; conditions: for Signal intensity within the axillary lymph node (enhancement ratio, lymph node / adjacent muscle): 0.15 μmolGd/5 μL
Description: Mice were anesthetized with 1.15 mg sodium pentobarbital (Dainabot, Osaka, Japan) by intraperitoneal injection. Then 0.15 μmolGd/5 μL of all nano-size contrast agents or 0.45 μmolGd/5 μL of Gd-[DTPA]-dimeglumine were injected into normal mammary glands or mammary tissue surrounding a tumor. Dynamic MR images were obtained using a 1.5-Tesla superconductive magnet unit (Signa LX, General Electric Medical System, Milwaukee, Wis.) with a birdcage type coil of 3 cm diameter fixed by a custom-made coil holder. The mice were wrapped with gauze to conserve their body temperature and were placed at the center of the coils.
In order to evaluate the effect of contrast agent molecular size on the ability to visualize the lymphatics and lymph nodes of athymic nu/nu mice, thirty five non-tumor bearing nu/nu mice were divided into seven groups (n=5). The mice were evaluated with 3D-fast spoiled gradient echo (3D-fastSPGR (efgre3d package; Signa Horizon, GE); repetition time/echo time 19.2/7.2 msec; inversion time 47 msec; bandwidth 31.2 kHz, flip angle 30°, 4 excitations; 36 slice encoding steps; scan time 4 minutes 49 seconds) with chemical shift fat-suppression at 6, 12, 18, 24, 30, and 36 minutes post-injection of each contrast agent. The coronal images were reconstructed with 0.6-mm section thickness every 0.3-mm. The field of view was 8×4 cm and the size of the matrix was 512×256. The slice data were processed into 3D images using the maximum intensity projection (MIP) method with the same window and level (window 3500 and level 2100) (Advantage Windows, General Electric Medical System). The enhancement ratio was calculated by taking the average signal intensity in the axillary lymph node and dividing it by the signal intensity in the adjacent muscle.

[3] = Serum phantoms: T1-weighted MRI signal intensity vs G6 agent concentration; type: physicochemical; conditions: FIG. 21B
From the text: In order to verify the correlation between T1-weighted MRI signal intensity and concentration of G6 agent, serum phantoms were made containing various concentrations of the G6 agent with a bovine serum (GIBCO, Invitrogen Co., Carlsbad, Calif.) and MR images were obtained with the same imaging technique as shown above. Three sets of phantoms, high ([…]-40 mMGd), intermediate (0.1-1 mMGd) and low (0.01-0.1 mMGd) concentrations, were studied. A sample of Gd-DTPA was used as an internal control.

[4] = Quantification of contrast agent in sentinel lymph nodes (signal intensity compared with phantoms); type: in vivo, athymic nu/nu mice
Description: In order to semi-quantify the concentration of contrast agent within each sentinel lymph node, non-tumor bearing athymic nu/nu mice (n=8) were anesthetized and injected with 0.40 μmolGd of the G6 contrast agent (40 mMGd/6400 ppm) into the mammary gland, and axial images were taken with serum phantoms containing known concentrations (2.5 and 5 mM) of G6 using the 3D-fastSPGR (repetition time/echo time 19.2/7.2 msec; inversion time 47 msec; bandwidth 31.2 kHz, flip angle 30°, 3 excitations; 16 slice encoding steps; scan time 2 minutes 25 seconds) 12, 24, 36, 48, and 60 minutes after injection.
To validate the concentration of G6 agent, we used another method to calculate the Gd concentration in the enhanced left axillary lymph node. The consecutive MR images of 5 separate mice together with the same phantoms used above were taken with the same 3D-fSPGR protocol using 4 flip angles (10, 20, 30, and 40 degrees) at 24 min post-injection of 40 mM/20 μL G6 agent in the left mammary gland. Signal intensity of the enhanced left axillary lymph node was corrected with that in the right axillary lymph node as a non-enhanced control. Then, signal intensities obtained with different flip angles were plotted in order to calculate decreased T1 values in the left axillary lymph node due to the presence of G6 agent. Gd(III) concentrations were calculated based on the decreased T1 values in the enhanced node and the R1 relaxivity of G6 agent at this condition. Technically, multi-flip angle scans were able to be performed once an hour because of the gradient driver overheat on the MRI system. In order to calculate serial concentration of the G6 agent, this separate set of mice was used only to obtain the T1 values. The serial concentrations of G6 agent were calculated based on serial scan data under flip angle (30°) and T1 values obtained from multi-flip angle scans.

[5] = in vivo
[6] = PT-18 model, peritumoral injection

PAMAM-G6D-(Gd-1B4M)256 dendrimer conjugate
Imaging of enlarged metastatic lymph nodes and dilated lymphatic vessels ([1]; BALB-neuT model): clearly imaged | Enhancement of axillary lymph node tissue with metastatic tumor cells [1, 6]: did not shown enhancement | Lymphatic vessel flowing into the lymph node with a metastatic tumor [1, 6]: dilated and showed enhancement | Visualization of axillary lymph nodes and their lymphatic vessels ([2]; 6-36 minutes post-injection into mammary gland, listed as G6): earliest and most intense opacification of the sentinel lymph nodes; also recorded: visualized at all time points in all 10 mice | Signal intensity within the axillary lymph node (enhancement ratio, lymph node / adjacent muscle) ([2]; 6 minutes post-injection): 2.6±0.2 | Signal intensity within the axillary lymph node (enhancement ratio, lymph node / adjacent muscle) ([2]; 12 minutes post-injection): 2.9±0.3 | T1 relaxivity [3]: much higher T1 relaxivity than Gd-DTPA | Time of maximum concentration in the axillary lymph node ([4]; five mice): 24 minutes post-injection in two of five mice and 36 minutes post-injection in three of five mice | Retention in the left axillary lymph node (FIG. 23) ([4]; mouse, in vivo): maintained in high concentration in the lymph node for up to 60 minutes post-injection | Accumulation in the lateral thoracic lymph nodes ([4]; number of mice): three of five mice | Survival in the lymph system [5]: intermediate survival period in the lymph system
